Experimental findings from EPA's ToxValDB 9.5 (doi:10.2903/j.efsa.2016.4584) are described below.

In one series the test system is Tagia sp. The note with it: chronic/long-term; duration: 56 days; growth.
For the next series, the system named is Landoltia sp. As to conditions: chronic/long-term; duration: 8 weeks; frond number.
Another series concerns Apis mellifera. The note with it: acute, mortality.
The next series relates to Folsomia candida. The note with it: chronic/long-term; duration: 28 days; mortality.
In the next series the test system is Mus musculus. The note with it: chronic; duration: 18 months; body weight.
Another series concerns Oncorhynchus mykiss. As to conditions: acute; duration: 96 hours; mortality.
The next series has as its system Canidae. The note with it: subchronic; duration: 90 days; oral; Dog Other.
The subject of another series is Anas platyrhynchos. As to conditions: acute; oral; unspecified; mortality.

As usually defined, the NOAEL is the highest tested level that showed no adverse finding. Usually LC50 stands for the concentration that kills 50% of the test population. Read a low LC50 as greater toxicity.

Turning to `COC(=O)c1ccc(CNS(C)(=O)=O)cc1S(=O)(=O)NC(=O)Nc1nc(OC)cc(OC)n1` [Mesosulfuron-methyl], the figures for the NOEC with Tagia sp., in the series with Landoltia sp. and in the series on Folsomia candida were 125 mg/kg, 0.000388 mg/L and 1000 mg/kg, respectively. The LD50 with Apis mellifera (dermal) was > 100 µg/piece; in the series with Apis mellifera (oral, unspecified), > 106 µg/piece; in the series with Colinus virginianus (acute, oral, mortality), > 2000 mg/kg-day; with Rattus norvegicus (acute, oral, mortality), > 5000 mg/kg; in the series with Anas platyrhynchos, > 2000 mg/kg-day. The NOEL in the series with Colinus virginianus (chronic) came to 93 mg/kg-day; in the series with Rattus norvegicus (reproduction developmental, no effects), 840 mg/kg-day. Moreover, the results for the NOAEL with Mus musculus and in the series on Canidae were 103 mg/kg-day and 648 mg/kg-day, respectively. Besides, the LC50 with Oncorhynchus mykiss is > 100 µg/mL.
